Assay results taken from patent publication US11998610B2, “Conjugates and methods of using the same” (Flagship Pioneering Innovations V, Inc., priority 2018, dated 2024).
Non-standard residues stand in square brackets, D forms with d. Residues, ends and D or L forms follow the SMILES beside them. *: point of attachment. Myristoyl = CCCCCCCCCCCCCC(=O)*; Octanoyl = CCCCCCCC(=O)*

Assays:
[1] = test system: E. coli CFT073 ATCC 700928 and/or E. coli Nissle 1917; assay: Cell-based assay with ClbP with LCMS, ClbP positive strain; conditions: for % Remaining in ClbP Positve Relative to Media-Only: ClbP-encoding E. coli, 10 μM compound, 37° C., 20 h; for Difference between the ClbP Positive and ClbP Negative release profiles: conclusion from Table 4
How it was run: (§1)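 Compound (10 μM final) incubated 20 h at 37° C, aerobically, with 1:40-diluted overnight cultures of ClbP-positive E. coli or negative BL21(DE3), in duplicate, alongside uninoculated LB. Remaining parent quantified by LC-MS/MS (MRM) after acetonitrile quench, expressed as percent of media-alone.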

[2] = Stability of conjugates in Simulated Intestinal Fluid (SIF); type: in vitro ADME; conditions: simulated intestinal fluid pH 6.7 with pancreatin, 1 μM, 37° C.
How it was run: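 Conjugates at 1 μM (from 1 mM DMSO stock) were incubated with agitation at 37° C. in freshly made SIF: FaSSIF powder plus pancreatin in pH 6.7 phosphate buffer. Aliquots taken at T0 and at regular intervals were quenched with 1 volume acetonitrile, and LC/MS gave degradation rates.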

E. coli BL21(DE3) = assay: Cell-based assay with ClbP with LCMS, ClbP negative strain; conditions: 10 μM compound, 37° C., 20 h
How it was run: as §1

[3] = In vitro Colonic Material Stability Assay; type: in vitro ADME; conditions: for Assay 3 (% Remaining at 24 h): colonic material slurry, anaerobic, 1 or 10 μM; for Selective delivery to the colon (conclusion from Table 2): from SGF, SIF and colonic material stability
How it was run: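 Compounds were added at 1 or 10 μM final to colonic material slurry (6.7 μL of 15% w/v slurry per 1 mL YCFAC or similar medium). Samples taken at 0–2880 min were acetonitrile-quenched and the remaining compound quantified by LC/MS.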

CCCCCCCC(=O)N[C@H](CCCNC(=N)N)C(=O)N[C@@H](C)C(=O)OC [Example 11, Methyl octanoyl-D-arginyl-L-alaninate] (Octanoyl-[dR]-Ala-OMe)
% Remaining in ClbP Positve Relative to Media-Only [1]: + (between 25-75% compound remaining in the 20 μM WT ClbP reaction relative to the no-enzyme control) | Assay 2 (SIF) (% @ Remaining 4 hours) [2]: A (<25% of the tested compound remaining) | % Remaining in ClbP Negative Relative to Media-Only (E. coli BL21(DE3)): − (>75% compound remaining in the 20 μM WT ClbP reaction relative to the no-enzyme control) | Assay 3 (% Remaining at 24 h) [3]: C (>75% of the tested compound remaining)

CCCCCCCC(=O)N[C@H](CCC(=O)O)C(=O)N[C@@H](C)C(=O)OC [Example 9, (R)-5-(((S)-1-methoxy-1-oxopropan-2-yl)amino)-4-octanamido-5-oxopentanoic acid] (Octanoyl-[dE]-Ala-OMe)
% Remaining in ClbP Positve Relative to Media-Only [1]: + (between 25-75% compound remaining in the 20 μM WT ClbP reaction relative to the no-enzyme control) | Assay 2 (SIF) (% @ Remaining 4 hours) [2]: B (25-75% of the tested compound remaining) | % Remaining in ClbP Negative Relative to Media-Only (E. coli BL21(DE3)): − (>75% compound remaining in the 20 μM WT ClbP reaction relative to the no-enzyme control) | Assay 3 (% Remaining at 24 h) [3]: B (25-75% of the tested compound remaining)

CCCCCCCC(=O)N[C@H](CC(N)=O)C(=O)NCCN(C)C(=O)Oc1ccc2c(C)cc(=O)oc2c1 [Example 70, 4-methyl-2-oxo-2H-chromen-7-yl (R)-(2-(4-amino-2-octanamido-4-oxobutanamido)ethyl)(methyl)carbamate]
% Remaining in ClbP Positve Relative to Media-Only [1]: + (between 25-75% compound remaining in the 20 μM WT ClbP reaction relative to the no-enzyme control) | Difference between the ClbP Positive and ClbP Negative release profiles [1]: particularly favorable difference | Assay 2 (SIF) (% @ Remaining 4 hours) [2]: C (>75% of the tested compound remaining) | % Remaining in ClbP Negative Relative to Media-Only (E. coli BL21(DE3)): − (>75% compound remaining in the 20 μM WT ClbP reaction relative to the no-enzyme control) | Assay 3 (% Remaining at 24 h) [3]: C (>75% of the tested compound remaining)

CCCCCCCCCCCCCC(=O)N[C@H](CC(N)=O)C(=O)N[C@@H](C)CCC(=O)OC [Example 21, Methyl (S)-4-((R)-4-amino-4-oxo-2-tetradecanamidobutanamido)pentanoate]
% Remaining in ClbP Positve Relative to Media-Only [1]: + (between 25-75% compound remaining in the 20 μM WT ClbP reaction relative to the no-enzyme control) | Assay 2 (SIF) (% @ Remaining 4 hours) [2]: C (>75% of the tested compound remaining) | % Remaining in ClbP Negative Relative to Media-Only (E. coli BL21(DE3)): − (>75% compound remaining in the 20 μM WT ClbP reaction relative to the no-enzyme control) | Assay 3 (% Remaining at 24 h) [3]: B (25-75% of the tested compound remaining) | Selective delivery to the colon (conclusion from Table 2) [3]: can be selectively delivered to the colon

CCCCCCCC(=O)N[C@H](CC(N)=O)C(=O)N[C@@H](C)C(=O)OC [Example 2, Methyl octanoyl-D-asparaginyl-L-alaninate] (Octanoyl-[dN]-Ala-OMe)
% Remaining in ClbP Positve Relative to Media-Only [1]: ++ (<25% compound remaining in the 20 μM WT ClbP reaction relative to the control) | Assay 2 (SIF) (% @ Remaining 4 hours) [2]: A (<25% of the tested compound remaining) | % Remaining in ClbP Negative Relative to Media-Only (E. coli BL21(DE3)): + (between 25-75% compound remaining in the 20 μM WT ClbP reaction relative to the no-enzyme control) | Assay 3 (% Remaining at 24 h) [3]: C (>75% of the tested compound remaining)

COC(=O)[C@H](C)NC(=O)[C@@H](CC(N)=O)NC(=O)[C@@H](C)c1ccc2cc(OC)ccc2c1 [Example 18, Methyl ((S)-2-(6-methoxynaphthalen-2-yl)propanoyl)-D-asparaginyl-L-alaninate]
% Remaining in ClbP Positve Relative to Media-Only [1]: + (between 25-75% compound remaining in the 20 μM WT ClbP reaction relative to the no-enzyme control) | Assay 2 (SIF) (% @ Remaining 4 hours) [2]: A (<25% of the tested compound remaining) | % Remaining in ClbP Negative Relative to Media-Only (E. coli BL21(DE3)): + (between 25-75% compound remaining in the 20 μM WT ClbP reaction relative to the no-enzyme control) | Assay 3 (% Remaining at 24 h) [3]: C (>75% of the tested compound remaining)

CCCCCCCCCCCCCC(=O)N[C@H](CC(N)=O)C(=O)N[C@@H](C)C(=O)OC [Example 1, Methyl tetradecanoyl-D-asparaginyl-L-alaninate] (Myristoyl-[dN]-Ala-OMe)
% Remaining in ClbP Positve Relative to Media-Only [1]: + (between 25-75% compound remaining in the 20 μM WT ClbP reaction relative to the no-enzyme control) | Assay 2 (SIF) (% @ Remaining 4 hours) [2]: A (<25% of the tested compound remaining) | % Remaining in ClbP Negative Relative to Media-Only (E. coli BL21(DE3)): + (between 25-75% compound remaining in the 20 μM WT ClbP reaction relative to the no-enzyme control) | Assay 3 (% Remaining at 24 h) [3]: A (<25% of the tested compound remaining)

CCCCCCCCCCCCCC(=O)N[C@H](CC(N)=O)C(=O)Nc1ccc(COC)cc1 [Example 22, (R)—N1-(4-(methoxymethyl)phenyl)-2-tetradecanamidosuccinamide]
% Remaining in ClbP Positve Relative to Media-Only [1]: − (>75% compound remaining in the 20 μM WT ClbP reaction relative to the no-enzyme control) | Assay 2 (SIF) (% @ Remaining 4 hours) [2]: C (>75% of the tested compound remaining) | % Remaining in ClbP Negative Relative to Media-Only (E. coli BL21(DE3)): − (>75% compound remaining in the 20 μM WT ClbP reaction relative to the no-enzyme control) | Assay 3 (% Remaining at 24 h) [3]: A (<25% of the tested compound remaining) | Selective delivery to the colon (conclusion from Table 2) [3]: can be selectively delivered to the colon

CCCCCCCC(=O)N[C@H](CC(N)=O)C(=O)N[C@H](C(=O)OC)C(C)C [Example 6, Methyl octanoyl-D-asparaginyl-L-valinate] (Octanoyl-[dN]-Val-OMe)
% Remaining in ClbP Positve Relative to Media-Only [1]: ++ (<25% compound remaining in the 20 μM WT ClbP reaction relative to the control) | Assay 2 (SIF) (% @ Remaining 4 hours) [2]: A (<25% of the tested compound remaining) | % Remaining in ClbP Negative Relative to Media-Only (E. coli BL21(DE3)): + (between 25-75% compound remaining in the 20 μM WT ClbP reaction relative to the no-enzyme control) | Assay 3 (% Remaining at 24 h) [3]: B (25-75% of the tested compound remaining)

CCCCCCCC(=O)N[C@@H](CC(N)=O)C(=O)N[C@@H](C)C(=O)OC [Example 4, Methyl octanoyl-L-asparaginyl-L-alaninate] (Octanoyl-Asn-Ala-OMe)
% Remaining in ClbP Positve Relative to Media-Only [1]: ++ (<25% compound remaining in the 20 μM WT ClbP reaction relative to the control) | Assay 2 (SIF) (% @ Remaining 4 hours) [2]: A (<25% of the tested compound remaining) | % Remaining in ClbP Negative Relative to Media-Only (E. coli BL21(DE3)): ++ (<25% compound remaining in the 20 μM WT ClbP reaction relative to the control) | Assay 3 (% Remaining at 24 h) [3]: A (<25% of the tested compound remaining)

CCCCCCCCCCCCCC(=O)N[C@H](CC(N)=O)C(=O)N[C@@H](C)CCC(=O)O[C@]1(CC)C(=O)OCc2c1cc1n(c2=O)Cc2c-1nc1ccc(O)cc1c2CC [Example 35, (S)-4,11-diethyl-9-hydroxy-3,14-dioxo-3,4,12,14-tetrahydro-1H-pyrano[3′,4′:6,7]indolizino[1,2-b]quinolin-4-yl (S)-4-((R)-4-amino-4-oxo-2-tetradecanamidobutanamido)pentanoate]
% Remaining in ClbP Positve Relative to Media-Only [1]: + (between 25-75% compound remaining in the 20 μM WT ClbP reaction relative to the no-enzyme control) | Difference between the ClbP Positive and ClbP Negative release profiles [1]: particularly favorable difference | Assay 2 (SIF) (% @ Remaining 4 hours) [2]: C (>75% of the tested compound remaining) | % Remaining in ClbP Negative Relative to Media-Only (E. coli BL21(DE3)): − (>75% compound remaining in the 20 μM WT ClbP reaction relative to the no-enzyme control)
